Source: patent US20240131044A1, “METHOD FOR TREATING CANCER” (M.T.3, Inc., priority 2022, published 2024)

Assays:
V79 cells = experiment: Colony formation, survival fraction of V79 cells; assay type: cell-based, Chinese hamsters
Method: (§1) An anti-cancer agent and a pharmaceutical composition were administered to test cells and then the cells were cultured. Then, after colonies were formed, the number of colonies was counted. Here, samples in which the concentration of the anti-cancer agent to be administered was varied were prepared, and in each sample, the survival fraction of the cells compared with the case where cells were cultured without administration of the pharmaceutical composition was measured. Regarding the type of anti-cancer agent to be administered, a predetermined anti-cancer agent was selected depending on the type of administration target cells. Note that cells that were cultured without administration of the pharmaceutical composition and the anti-cancer agent were used as a control. Hereinafter, these steps will be described.
(§2) Here, CHO cells, V79 cells, and canine-derived cancer cells were prepared as the test cells. The CHO cells are ovarian cells derived from Chinese hamsters, and the V79 cells are fibroblasts derived from the lungs of Chinese hamsters. Melanoma developing cells (CML6M) and soft tissue sarcoma developing cells (STSA-1) were used as the cancer cells.
(§3) The cancer cells were prepared by being cultured using an αMEM culture medium supplemented with 10% serum and an antibiotic. The cancer cells were prepared such that, when the concentration of the cells in a cell suspension obtained by subjecting the cultured cells to PBS washing and trypsin treatment, the concentration was within a predetermined concentration range. Here, the predetermined concentration ranges were 300 cells/well, 100 to 150 cells/well, and 500 to 1000 cells/well for the CHO/V79 cells, the melanoma cells, and the soft tissue sarcoma cells, respectively.
(§4) Next, the cancer cells were cultured in culture environments to which the anti-cancer agent was added at various concentrations, and were then allowed to form colonies. The culture periods for colony formation were a week, 10 days, and 14 days for CHO and V79, melanoma, and soft tissue sarcoma, respectively. After colonies were formed, washing using a physiological saline solution, fixation using 100% ethanol, and staining using 0.1% crystal violet were performed, and then the number of colonies per well was counted under a microscope. Note that, here, the colony was defined as containing 50 or more cells. […]
A graph with the horizontal axis representing the concentration of the anti-cancer agent and the vertical axis representing the survival fraction was created by plotting the survival fraction measurement results relative to the SQAP administration amounts, and the effect of the addition of SQAP on the survival fraction was examined. Hereinafter, the results from each anti-cancer agent will be shown in a table and described. […]
V79 cells were used as the cells, and cisplatin was used as the anti-cancer agent. The cisplatin was administered at concentrations of 0 μg/mL, 0.1 μg/mL, 0.2 μg/mL, 0.3 μg/mL, 0.4 μg/mL, and 0.5 μg/mL.
V79 cells were used as the cells, and camptothecin was used as the anti-cancer agent. The amount of the camptothecin was set to 0 nM, 5 nM, 10 nM, 15 nM, and 20 nM.
V79 cells were used as the cells, and mitomycin C was used as the anti-cancer agent. The amount of MMC was set to 0 nM, 100 nM, 200 nM, 300 nM, 400 nM, and 500 nM. […]
V79 cells were used as the cells, and taxol was used as the anti-cancer agent. The amount of the taxol was set to 0 nM, 10 nM, 20 nM, and 30 nM.
V79 cells were used as the cells, and MMS was used as the anti-cancer agent. The amount of the MMS was set to 0 μM, 10 μM, 20 μM, 30 μM, and 40 μM.
(§5) In the above examples, the anti-cancer agent and the pharmaceutical composition were administered to the test cells and then the cells were cultured. […]

CHO cells = experiment: Colony formation, survival fraction of CHO cells; assay type: cell-based, Chinese hamsters
Method: as §1, §2, §3, §4
In the above examples, the anti-cancer agent and the pharmaceutical composition were administered to the test cells and then the cells were cultured. In this example, test cells were cultured after administering pharmaceutical composition (SQAP) alone without administering the anti-cancer agent to the test cells, and then the number of colonies was counted after colonies were formed. […]

[1] = system: soft tissue sarcoma developing cells (STSA-1); experiment: Colony formation, survival fraction of canine soft tissue sarcoma cells; assay type: cell-based
Method: as §1, §2, §3
Next, the cancer cells were cultured in culture environments to which the anti-cancer agent was added at various concentrations, and were then allowed to form colonies. The culture periods for colony formation were a week, 10 days, and 14 days for CHO and V79, melanoma, and soft tissue sarcoma, respectively. After colonies were formed, washing using a physiological saline solution, fixation using 100% ethanol, and staining using 0.1% crystal violet were performed, and then the number of colonies per well was counted under a microscope. Note that, here, the colony was defined as containing 50 or more cells. Moreover, mitomycin C, doxorubicin, bleomycin, camptothecin, etoposide, taxol, methyl methanesulfonate, and cisplatin were used as the anti-cancer agent.
A graph with the horizontal axis representing the concentration of the anti-cancer agent and the vertical axis representing the survival fraction was created by plotting the survival fraction measurement results relative to the SQAP administration amounts, and the effect of the addition of SQAP on the survival fraction was examined. Hereinafter, the results from each anti-cancer agent will be shown in a table and described.
Canine-derived melanoma cells and soft tissue sarcoma cells were used as the cells, and doxorubicin was used as the anti-cancer agent. The amount of the doxorubicin administered to the melanoma cell was set to 0 nM, 5 nM, 10 nM, 15 nM, 20 nM, and 25 nM. […] In Table 2, survival fractions in the case where SQAP was not administered are shown with a solid line, survival fractions in the case where SQAP was administered at a concentration of 10 μM are shown with a broken line, survival fractions in the case where SQAP was administered at a concentration of 20 μM are shown with a 1-dot chain line, and survival fractions in the case where SQAP was administered at a concentration of 30 μM are shown with a 2-dot chain line.
as §5

CCCCCCCCCCCCCCCCCC(=O)OCCCO[C@H]1O[C@H](CS(=O)(=O)O)[C@@H](O)[C@H](O)[C@H]1O [SQAP, sulfoquinovosylacylpropanediol]
survival fraction (V79 cells; MMS 40 μM + SQAP 10 μM): about 7%
survival fraction (V79 cells; MMS 40 μM + SQAP 20 μM): less than 1%
survival fraction (V79 cells; SQAP 10 μM alone): 10%
survival fraction (V79 cells; SQAP 20 μM alone): 10%
survival fraction of cells after culture, SQAP and anti-cancer agent in combination compared with SQAP alone (V79 cells; any anti-cancer agent of the examples): decreased
survival fraction (V79 cells; bleomycin 15 nM + SQAP 10 μM): about 20%
survival fraction (V79 cells; bleomycin 15 nM + SQAP 20 μM): about 2%
survival fraction (V79 cells; camptothecin 20 nM + SQAP 10 μM): about 12%
survival fraction (V79 cells; camptothecin 20 nM + SQAP 20 μM): about 3%
survival fraction (V79 cells; cisplatin 0.3 μg/mL + SQAP 10 μM (b65 prints 1011M)): about 8%
survival fraction (V79 cells; cisplatin 0.3 μg/mL + SQAP 20 μM (b65 prints 20 without unit)): about 5%
survival fraction (V79 cells; etoposide 30 nM + SQAP 10 μM): about 9%
survival fraction (V79 cells; etoposide 30 nM + SQAP 20 μM): about 8%
survival fraction (V79 cells; mitomycin C 500 nM + SQAP 10 μM): about 2%
survival fraction (V79 cells; mitomycin C 500 nM + SQAP 20 μM): about 1.8%
survival fraction (V79 cells; taxol 30 nM + SQAP 10 μM): about 2%
survival fraction (V79 cells; taxol 30 nM + SQAP 20 μM): about 2%
survival fraction (CHO cells; SQAP 30 μM alone): about 75%
survival fraction (CHO cells; mitomycin C 500 nM + SQAP 30 μM): about 1%
survival fraction (CHO cells; mitomycin C 500 μM + SQAP 30 μM (as restated in Example 10)): about 1%
survival fraction ([1]; soft tissue sarcoma cells, doxorubicin 10 nM + SQAP 10 μM): about 2%
survival fraction ([1]; soft tissue sarcoma cells, doxorubicin 10 nM + SQAP 20 μM): about 2%
survival fraction ([1]; soft tissue sarcoma cells, doxorubicin 10 nM + SQAP 30 μM): about 0.7%
survival fraction ([1]; soft tissue sarcoma developing cells, SQAP 10 μM alone): about 90%
survival fraction ([1]; soft tissue sarcoma developing cells, SQAP 20 μM alone): about 75%
survival fraction ([1]; soft tissue sarcoma developing cells, SQAP 30 μM alone): about 45%
survival fraction ([1]; soft tissue sarcoma developing cells, doxorubicin 10 μM + SQAP 10 μM (as restated in Example 10)): about 2%
survival fraction ([1]; soft tissue sarcoma developing cells, doxorubicin 10 μM + SQAP 20 μM (as restated in Example 10)): about 2%
survival fraction ([1]; soft tissue sarcoma developing cells, doxorubicin 10 μM + SQAP 30 μM (as restated in Example 10)): about 0.7%
